Laboratory results: patent US20220323454A1, “PHENOTHIAZINES AND THEIR DERIVATIVES FOR USE AS A MEDICAMENT” (Guangzhou Virotech Pharmaceutical Co., Ltd., priority 2019, published 2022)

What was measured:
B16-OVA cells = test: CTL killing of IFN-γ-treated B16-OVA melanoma cells (microscope); format: cell-based, mouse
Method: (3) Melanoma cells B16-OVA (B16 cells expressing OVA gene) were treated with 10 μg/mL IFN-γ for 24 hours, and then mixed with CTL cells at a ratio of 1:5 and co-cultured for 4 hours. Cells were treated with 1 μM MTC. B16-OVA cells treated with DMSO or MTC only (without IFN-γ treatment) were used as control. The apoptosis of B16-OVA was observed by microscope, and then the killing ability of CTL cells to target cells was assessed.
(§1) (4) The B16-OVA group received no treatment, and the medium was replaced with water in the Water group. The other groups were treated with 10 μg/mL IFNγ. After 24 hours, except for the B16-OVA group, each group was co-cultured with CTL cells at a ratio of 1:5 for 4 hours, and treated with MTC […], LMT (1 μM) or anti-PD1 (PD-1 antibody, 10 μg/mL, Nivolumab, BMS). The death of B16-OVA in each group was observed by microscope, and then the killing ability of CTL cells to target cells was assessed. […] The IFN-γ+MTC group and the IFN-γ+LMT group were treated with 10 μg/mL IFN-γ for 24 hours. The cells were then mixed with CTL cells at a ratio of 1:5, co-cultured for 4 hours and treated with MTC (1 μM) or LMT (1 μM). The MTC and LMT groups were treated with MTC (10 μM) or LMT (10 μM) only. The killing ability against target cells was observed.

B16-WT cells = test: Killing of B16-WT melanoma cells, with or without CTL cells; format: cell-based, mouse; conditions: FIG. 4E
Method: as §1

[1] = tested on: Jurkat-PD-1-NFAT-LUC cells; test: NFAT-luciferase activity in Jurkat-PD-1-NFAT-LUC cells co-cultured with Raji-PD-L1 cells; format: cell-based, human; conditions: 4.86 μM MTC or LMT added with Raji-PD-L1 cells, 6 h co-culture; FIG. 1E
Method: (§2) (1) Jurkat cells were used to construct a stable cell line expressing PD-1. The pCAGin-PD-1 plasmid was electroporated into Jurkat cells, which were then screened with 900 μg/mL G418 antibiotic and flow-sorted for single clones. Jurkat-PD-1 cells were then electroporated into a DNA fragment that controls the luciferase gene through the NFAT-binding site (referred to as NFAT-LUC). A single clone was then flow-sorted and named clone 5. Using this cell, the expression level of IL-2 can be measured by the activity of luciferase. Raji cells stably expressing PD-L1 were constructed, and the pCDNA-PD-L1 plasmid was electroporated into the Raji cells, followed by screening with 2 μg/mL puromycin, and then flow-sorted single clones and named clone 1.
(4) A 96-well plate was coated with 10 μg/mL CD3 antibody/10 μg/mL CD28 antibody overnight at 4° C., and excess antibody then washed off with PBS. Raji cells or Raji-PD-L1 cells were co-cultured with Jurkat-PD-1-NFAT-LUC cells at a ratio of 1:1, or to a mixture of Raji-PD-L1 cells and Jurkat-PD-1-NFAT-LUC cells at a ratio of 1:1 was added 4.86 μM MTC or LMT. Luciferase substrate was added after 6h co-culture and the luciferase activity was measured by a microplate reader.

[2] = tested on: Jurkat-PD-1-NFAT-LUC cells; test: IL-2 secretion by Jurkat-PD-1-NFAT-LUC cells co-cultured with Raji-PD-L1 cells (ELISA); format: cell-based, human; conditions: Raji-PD-L1 : Jurkat-PD-1-NFAT-LUC 1:1, CD3/CD28 antibody coated plate, 6 hours; 1 μM MTC or 10 μg/mL PD1 antibody; FIG. 1D
Method: as §2
(3) A 96-well plate was coated with 10 μg/mL CD3 antibody/10 μg/mL CD28 antibody overnight at 4° C. and excess antibody was washed off with PBS. Raji cells or Raji-PD-L1 cells were co-cultured with Jurkat-PD-1-NFAT-LUC cells at a ratio of 1:1, or to a mixture of Raji-PD-L1 cells and Jurkat-PD-1-NFAT-LUC cells at a ratio of 1:1 was added 1 μM MTC or 10 μg/mL PD1 antibody for co-culture; after 6 hours of co-culture, the secretion of IL-2 in the supernatant was measured by ELISA.

EL4-OVA-mPDL1 cells = test: EL4-OVA-mPDL1 subcutaneous transplanted tumor in Rag1−/− mice given CTL cells; format: in vivo, mouse; conditions: CTL cells by tail vein, MTC 40 mg/kg/day intragastric, PD-1 antibody 10 mg/kg/2 days intraperitoneal, vs CTL cell-only group, FIGS. 5B, C, D
Method: (1) Lymphoma cells overexpressing chicken ovalbumin OVA and mouse PD-L1, namely EL4-OVA-mPDL1 cells, were resuspended in BD Matrigel, in which, for one side of one mouse, 2×10^6 cells were resuspended in 100 μl BD Matrigel.
(2) The mixture of cells and Matrigel was inoculated into the left and right flanks of Rag1−/− mice subcutaneously, each at a dosage of 100 μl.
(3) When the tumor was fixed about 5 days after inoculation, activated OT-1 T cells (i.e., 2×10^6 CTL cells/mouse) were injected through the tail vein, and the mice were divided into 3 groups, namely the CTL cell group, the CTL cell +10 mg/kg/2 days PD-1 antibody group, and the CTL cell +40 mg/kg/day MTC group.
(4) The length and width of the transplanted tumor of each group of mice were measured from the day of tail vein injection of CTL cells, and every other day, and the tumor volume was calculated as length×width^2/2 (FIG. 5A).

Row | Molecule | killing effects of CTL cells to B16-OVA cells (B16-OVA cells; B16-OVA treated with 10 μg/mL IFNγ 24 hours, B16-OVA : CTL 1:5, 4 hours, MTC (1 µM), LMT (1 μM), FIGS. 4C and 4D) | combined killing effect with CTL cells on B16-OVA compared with the anti-PD-1 group (B16-OVA cells; MTC (1 µM) or LMT (1 μM) vs anti-PD1 10 μg/mL, FIG. 4D) | killing effect on B16-WT cells, combination with CTL cells (B16-WT cells; IFN-γ 10 μg/mL 24 hours, B16-WT : CTL 1:5, 4 hours, MTC (1 μM) or LMT (1 μM)) | killing effect on B16-WT cells, compound only (B16-WT cells; MTC (10 μM) or LMT (10 μM) only) | luciferase activity [1] | secretion of IL-2 in the supernatant [2] | tumor growth (tumor volume and tumor weight) (EL4-OVA-mPDL1 cells)
1 | CN(C)c1ccc2c(c1)Sc1cc(N(C)C)ccc1N2 [LMT, N3,N3,N7,N7-tetramethyl-10H-phenothiazine-3,7-diammonium dimesylate] | significantly enhanced | significantly stronger than that of the anti-PD-1 group | no killing effect | no killing effect | increased dramatically | – | –
2 | PD-1 antibody: anti-PD-1 antibody (Nivolumab, Bristol-Myers Squibb) used as comparator | – | – | – | – | – | sharply enhanced | inhibited
